Measurements published in ChEMBL document CHEMBL4513141, “CO-ADD screening of NIH (USA) - Clinical Collection” (2021).
Values after ≈ are worked out from the molar mass of the structure shown. Where a name gives a salt, the structure may show the parent alone.

What was measured:
[1] = system: HEK293; assay: cells; format: functional, Homo sapiens, ATCC CRL1573; conditions: ASSAY_TEST Inhibition of Cell Viability, detection method Resazurin, Fluorescence (ex560/em590), MEDIA DMEM with 10% FBS, plate type 384well, TC, CORNING #3712, time 18 hr
[2] = system: Staphylococcus aureus; conditions: ASSAY_TEST Inhibition of Bacterial Growth; detection method Absorption (OD600); MEDIA CAMHB; plate type 384well; NBS; CORNING #3640; time 18 hr
Description: (§1) Antibacterial activity against Staphylococcus aureus MRSA ATCC 43300 (CO-ADD:GP_020); MIC in CAMBH media, using NBS plates, by OD(600)

[3] = system: Escherichia coli; conditions: ASSAY_TEST Inhibition of Bacterial Growth; detection method Absorption (OD600); MEDIA CAMHB; plate type 384well; NBS; CORNING #3640; time 18 hr
Description: (§2) Antibacterial activity against Escherichia coli ATCC 25922 (CO-ADD:GN_001); MIC in CAMBH media using NBS plates, by OD(600)

[4] = system: Klebsiella pneumoniae; conditions: ASSAY_TEST Inhibition of Bacterial Growth; detection method Absorption (OD600); MEDIA CAMHB; plate type 384well; NBS; CORNING #3640; time 18 hr
Description: (§3) Antibacterial activity against Klebsiella pneumoniae MDR ATCC 70063 (CO-ADD:GN_003); MIC in CAMBH media using NBS plates, by OD(600)

[5] = system: Pseudomonas aeruginosa; conditions: ASSAY_TEST Inhibition of Bacterial Growth; detection method Absorption (OD600); MEDIA CAMHB; plate type 384well; NBS; CORNING #3640; time 18 hr
Description: (§4) Antibacterial activity against Pseudomonas aeruginosa ATCC 27853 (CO-ADD:GN_042); MIC in CAMBH media using NBS plates, by OD(600)

[6] = system: Acinetobacter baumannii; conditions: ASSAY_TEST Inhibition of Bacterial Growth; detection method Absorption (OD600); MEDIA CAMHB; plate type 384well; NBS; CORNING #3640; time 18 hr
Description: (§5) Antibacterial activity against Acinetobacter baumannii ATCC 19606 (CO-ADD:GN_034); MIC in CAMBH media using NBS plates, by OD600

[7] = system: Candida albicans; conditions: ASSAY_TEST Inhibition of Fungal Growth; detection method Absorption (OD530); plate type 384well; NBS; CORNING #3640
Description: (§6) Antifungal activity against Candida albicans ATCC 90028 (CO-ADD:FG_001); MIC in YNB media using NBS plates, by OD630

[8] = system: Cryptococcus neoformans
Description: Antifungal activity against Cryptococcus neoformans H99 ATCC 208821 (CO-ADD:FG_002); MIC in YNB media using NBS plates, by Resazurin OD(600-570)

[9] = system: Escherichia coli; assay: microbe, parasite or virus in culture; conditions: ATCC 25922, 18 h, ASSAY_TEST Inhibition of Bacterial Growth, detection method Absorption (OD600), MEDIA CAMHB, plate type 384well, NBS, CORNING #3640
Description: as §2

[10] = system: Klebsiella pneumoniae; assay: microbe, parasite or virus in culture; conditions: ATCC 700603, 18 h, ASSAY_TEST Inhibition of Bacterial Growth, detection method Absorption (OD600), MEDIA CAMHB, plate type 384well, NBS, CORNING #3640
Description: as §3

[11] = system: Candida albicans; assay: microbe, parasite or virus in culture; conditions: ATCC 90028, ASSAY_TEST Inhibition of Fungal Growth, detection method Absorption (OD530), plate type 384well, NBS, CORNING #3640
Description: as §6

[12] = system: Staphylococcus aureus; assay: microbe, parasite or virus in culture; conditions: ATCC 43300, 18 h, ASSAY_TEST Inhibition of Bacterial Growth, detection method Absorption (OD600), MEDIA CAMHB, plate type 384well, NBS, CORNING #3640
Description: as §1

[13] = system: Pseudomonas aeruginosa; assay: microbe, parasite or virus in culture; conditions: ATCC 27853, 18 h, ASSAY_TEST Inhibition of Bacterial Growth, detection method Absorption (OD600), MEDIA CAMHB, plate type 384well, NBS, CORNING #3640
Description: as §4

[14] = system: Acinetobacter baumannii; assay: microbe, parasite or virus in culture; conditions: ATCC 19606, 18 h, ASSAY_TEST Inhibition of Bacterial Growth, detection method Absorption (OD600), MEDIA CAMHB, plate type 384well, NBS, CORNING #3640
Description: as §5

[15] = Homo sapiens, ATCC CRL1573, HEK293

Row | MIC [2] [µM] | MIC [3] [µM] | MIC [4] [µM] | MIC [5] [µM] | MIC [6] [µM] | MIC [7] [µM] | MIC [8] [µM] | MIC [9] [µM] | MIC [10] [µM] | MIC [11] [µM] | MIC [12] [µM] | MIC [13] [µM] | MIC [14] [µM] | Structure (SMILES) | CC50 [1] [µM] | CC50 [1, 15] [µM]
1 | 5 | >10 | >10 | >10 | >10 | >10 | > 10 |  |  |  |  |  |  | COc1cccc2c1C(=O)c1c(O)c3c(c(O)c1C2=O)C[C@@](O)(C(C)=O)C[C@@H]3OC1CC(N)C(O)C(C)O1.Cl (some centres not stated) | 0.148 | 
2 | 0.625 |  |  | 0.625 | 2.5 |  | > 10 | ≤ 0.0781 | 2.5 | > 10 |  |  |  | C[C@H]1COc2c(N3CCN(C)CC3)c(F)cc3c(=O)c(C(=O)O)cn1c23.C[C@H]1COc2c(N3CCN(C)CC3)c(F)cc3c(=O)c(C(=O)O)cn1c23.O [LEVOFLOXACIN] |  | > 10
3 |  |  |  |  |  |  | > 10 | ≤ 0.0781 | 1.25 | > 10 | ≤ 0.0781 | 0.312 | 0.625 | NC1CCN(c2nc3c(cc2F)c(=O)c(C(=O)O)cn3-c2ccc(F)cc2F)C1 (configuration not stated) [TOSUFLOXACIN TOSYLATE] |  | > 10

The next lines start with the compound.

Row | Structure (SMILES) | MIC [2] [µM] | MIC [3] [µM] | MIC [4] [µM] | MIC [5] [µM] | MIC [6] [µM] | MIC [7] [µM] | MIC [8] [µM] | MIC [9] [µM] | MIC [10] [µM] | MIC [11] [µM] | MIC [12] [µM] | MIC [13] [µM] | MIC [14] [µM] | CC50 [1] [µM] | CC50 [1, 15] [µM]
4 | Cc1noc(NS(=O)(=O)c2ccc(N)cc2)c1C [SULFISOXAZOLE] |  |  |  |  |  |  | > 10 | > 10 | > 10 | > 10 | > 10 | > 10 | > 10 |  | > 10
5 | CN(C)[C@@H]1C(O)=C(C(N)=O)C(=O)[C@@]2(O)C(O)=C3C(=O)c4c(O)cccc4[C@@](C)(O)[C@H]3C[C@@H]12 [TETRACYCLINE] |  |  |  |  |  |  | > 10 | > 10 | > 10 | > 10 | > 10 | > 10 | > 10 |  | > 10
6 | Oc1cc(Cl)ccc1Oc1ccc(Cl)cc1Cl [TRICLOSAN] |  |  |  |  |  |  | > 10 | > 10 | > 10 | > 10 | 2.5 (≈ 0.724 µg/mL) | > 10 | > 10 |  | > 10
7 | COc1cc(Cc2cnc(N)nc2N)cc(OC)c1OC [TRIMETHOPRIM] |  |  |  |  |  |  | > 10 | 1.25 (≈ 0.363 µg/mL) | 10 (≈ 2.9 µg/mL) | > 10 | 5 (≈ 1.45 µg/mL) | > 10 | > 10 |  | > 10
8 | C[C@@H](c1ncncc1F)[C@](O)(Cn1cncn1)c1ccc(F)cc1F [VORICONAZOLE] |  |  |  |  |  |  | 0.625 (≈ 0.218 µg/mL) | > 10 | > 10 | ≤ 0.0781 | > 10 | > 10 | > 10 |  | > 10
9 | Cc1cn([C@H]2C[C@H](N=[N+]=[N-])[C@@H](CO)O2)c(=O)[nH]c1=O [ZIDOVUDINE] |  |  |  |  |  |  | > 10 | 5 (≈ 1.34 µg/mL) | 5 (≈ 1.34 µg/mL) | > 10 | > 10 | > 10 | > 10 |  | > 10
